Experimental data as given in patent US20210106674A1, “Gene Therapy For Mesothelioma” (The Trustees of the University of Pennsylvania, priority 2019, published 2021).
Marks after values point to notes of the source that are not given here.

Columns and labels:
MPM [1] = assay: Recent published trials of chemotherapy in MPM (historical comparison); assay type: in vivo; conditions: average of three published trials of pemetrexed re-treatment (103 patients)
MPM [2] = conditions: published trial, Pem re-treat with pem; cited from earlier work
[3] = test system: serum mesothelin-related protein (SMRP); assay: ELISA of serum mesothelin-related protein (SMRP); assay type: in vivo, Human; conditions: compared to baseline
Excerpt: See Supplemental Methods for details.

[4] = test system: purified mesothelin and extracts from allogeneic mesothelioma cell lines; assay: Immunoblotting with patient serum for induced anti-tumor antibodies; assay type: in vivo, Human; design: key to Antibody Response: 0 = no change; 1 = marginal changes; 2 = significant changes
Protocol: Enzyme-linked immunosorbent assays (ELISAs) were used to measure IFN-α2b levels (PBL Biomedical Labs; Piscataway, N.J.), as well as serum mesothelin-related protein (SMRP) levels (Fujirebio, Inc., Malvern, Pa.). Neutralizing adenovirus antibody titers (Nabs) were assessed as previously described (5). To detect induced humoral responses against tumor antigens, we performed immunoblotting against purified mesothelin and extracts from allogeneic mesothelioma cell lines using pre- and post-treatment serum as previously described (4-6). See Supplemental Methods for details.
To detect induced humoral responses against tumor antigens, we performed immunoblotting against purified mesothelin and extracts from allogeneic mesothelioma cell lines. Purified mesothelin was purchased from Raybiotech (Norcross, Ga.). Cell lines were derived from patient pleural fluid samples from previous clinical trials and were grown in culture as previously described (Sterman D H, Reico A, Haas A R, et al. A phase I trial of repeated Intrapleural adenoviral-mediated interferon-beta gene transfer for mesothelioma and metastatic pleural effusion. Mol Ther 2010; 18: 852-60). Extracts from cells or purified proteins were prepared and immunoblotted with patient serum (diluted at 1:1500) from time points before treatment, and 6 weeks after treatment as previously described (Sterman et al., 2010). Multiple exposures were obtained and comparisons were made on the exposures in which the major bands detected on pre-treatment blots were of equal intensity in post-treatment blots.
The blots were semi-quantitatively scored as follows: 0=no change in any bands; 1=minimal changes (i.e. increased intensity in one or two bands); 2=clear increases in >2 bands or appearance of new bands.

CD8 T cells and NK cells = assay: Flow cytometry of PBMC: CD69 on CD8 T cells and NK cells; assay type: in vivo, Human
Protocol: PBMCs were studied from a set of six patients who responded to therapy and 6 patients who progressed with treatment (Table 6).
PBMC were thawed and the activation of natural killer cell (NK) and T cells was assessed using flow cytometry as detailed in the Supplemental Methods (see also Ref 19).
All mAbs were from BD Biosciences (San Diego, Calif.) and R&D systems (Minneapolis, Minn., USA).
Details of the cell preparation and staining have been previously published (Stevenson J P, Kindler H L, Papasavvas E, et al. Immunological effects of anti-transforming growth factor-beta (TGF-beta) antibody GC1008 in cancer patients with malignant pleural mesothelioma (MPM). Oncoimmunology 2013; 8:e26218). Analysis was done by collecting 100,000 live lymphocytes (defined by size and granularity in FSC and SSC). Dead cells were excluded by manual gating in FSC/SSC. Detection thresholds were set according to isotype-matched negative controls. Results were expressed as Mean Fluorescent Intensity (MFI) and percent (%) of lymphocytes, NK cells (Lin3-CD56dimCD16+), CD3+CD4+ or CD3+CD8+ T cells. Data analysis was performed using FloJo software (Tree Star, San Carlos, Calif.).
Data were described as medians, 25th and 75th percentiles. Comparisons between responders (n=6) and non-responders (n=6) at each time point were done using Wilcoxon Kruskal-Wallis tests (Rank Sums). Differences between time points for all patients (n=12) were tested using Wilcoxon Signed-Rank or paired t-tests depending on data distribution, while differences between time points in responders (n=6) and in non-responders (n=6) were tested using Wilcoxon Signed-Rank. p values that were less than 0.05 were considered statistically significant. All statistics used JMP Pro11®.

[5] = post-treatment serum, 39 patients analysed

Nc1nc2[nH]cc(CCc3ccc(C(=O)N[C@@H](CCC(=O)O)C(=O)O)cc3)c2c(=O)[nH]1 [pem, pemetrexed]
Median OS, Average (MPM [1]): 11.7 mo
Response rate, Average (MPM [1]): 18%
TTP/PFS, Average (MPM [1]): 5.1 mo
2 yr OS (MPM [2]): 30%)

nadofaragene firadenovec [Ad.IFN]
patients with a greater than 20% decrease in SMRP level ([3]; at some time point): 15 of the 27 patients
patients with more than a 20% increase in SMRP level [3]: 12 of the 27 patients
Antibody Response ([4]; patient 402): 2
Antibody Response ([4]; patient 404): 0
Antibody Response ([4]; patient 405): 2
Antibody Response ([4]; patient 406): 1
Antibody Response ([4]; patient 411): 0
Antibody Response ([4]; patient 416): 0
Antibody Response ([4]; patient 417): 2
Antibody Response ([4]; patient 421): 2
Antibody Response ([4]; patient 422): 2
Antibody Response ([4]; patient 423): 1
Antibody Response ([4]; patient 425): 1
Antibody Response ([4]; patient 429): 1
patients with clear increases in anti-tumor bands [4, 5]: 14 patients
patients with minimal changes in tumor bands [4, 5]: 14 patients
patients with no changes in number or intensity of anti-tumor immunoblot bands [4, 5]: 11 patients
CD8 T Cells: % Positive for CD69 (CD8 T cells and NK cells; Good Responders, D 2, median): 26.6 (IQR: 23.2- %
NK Cells: % Positive for CD69 (CD8 T cells and NK cells; Good Responders, D 2, median, p = 0.03 vs Baseline): 66.6* (IQR: 42.1- %
CD8 T Cells: % Positive for CD69 (CD8 T cells and NK cells; Good Responders, D 15, median): 16.6 (IQR: 11.5- %
NK Cells: % Positive for CD69 (CD8 T cells and NK cells; Good Responders, D 15, median): 20.9 (IQR: 5.8- %
CD8 T Cells: % Positive for CD69 (CD8 T cells and NK cells; Poor Responders, D 2, median): 22.1 (IQR: 9.9- %
NK Cells: % Positive for CD69 (CD8 T cells and NK cells; Poor Responders, D 2, median): 33.3 (IQR: 22.8- %
CD8 T Cells: % Positive for CD69 (CD8 T cells and NK cells; Poor Responders, D 15, median): 14.9 (IQR: 10.5- %
NK Cells: % Positive for CD69 (CD8 T cells and NK cells; Poor Responders, D 15, median): 22.7 (IQR: 13.2- %
